Laboratory results as given in patent publication US20120122896A1, “2,1,3-BENZOXADIAZOL DERIVATIVES FOR THE INHIBITION OF INFLUENZA A AND B VIRUS AND RESPIRATORY SYNCYTIAL VIRUS REPLICATION” (PIKE PHARMA GMBH, priority 2009, published 2012).

Columns and labels:
HA-tagged PA from FluB = assay: competitive ELISA, PB1 peptide / PA of FluB; type: binding, influenza B virus
HA-tagged PA of FluA = conditions: read-out: IC50 (nM) PA (FluA)

MDVNPYFLFLKVPAQ [PB11-15 AT6Y, L7F]
IC50 (HA-tagged PA from FluB): 345 nM | IC50 (HA-tagged PA of FluA): 7.51 nM
